Data taken from BigSolDB 2.1.

S=c1[nH]c2ccccc2s1
solubility (mole fraction)
Conditions | in isobutanol | in isopropanol | in methanol | in n-butanol | in n-propanol | in toluene
273.15 K | – | 0.00949 | 0.00733 | 0.0198 | 0.015 | 0.00192
275.65 K | – | 0.0103 | 0.00795 | 0.0211 | 0.016 | 0.00205
278.15 K | – | 0.0111 | 0.00868 | 0.0224 | 0.017 | 0.0022
280.65 K | – | 0.0122 | 0.00946 | 0.0238 | 0.0181 | 0.00236
283.15 K | – | 0.0134 | 0.0103 | 0.0252 | 0.0194 | 0.00254
285.65 K | – | 0.0148 | 0.0111 | 0.0265 | 0.0205 | 0.00272
288.15 K | – | 0.0161 | 0.0121 | 0.0281 | 0.0219 | 0.0029
290.65 K | – | 0.0175 | 0.0131 | 0.0299 | 0.0232 | 0.0031
293.15 K | – | 0.0192 | 0.0141 | 0.0314 | 0.0245 | 0.00333
295.65 K | – | 0.0208 | 0.0153 | 0.0332 | 0.026 | 0.00354
298.15 K | – | 0.0224 | 0.0164 | 0.0349 | 0.0277 | 0.00378
300.65 K | – | 0.0242 | 0.0178 | 0.0368 | 0.029 | 0.00405
303.15 K | 0.027 | 0.0261 | 0.0192 | 0.0386 | 0.0309 | 0.00427
305.65 K | 0.0292 | 0.0282 | 0.0205 | 0.0405 | 0.0324 | 0.00454
308.15 K | 0.0311 | 0.0305 | 0.022 | 0.0425 | 0.0342 | 0.00482
310.65 K | 0.0336 | 0.0328 | 0.0235 | 0.045 | 0.036 | 0.0051
313.15 K | 0.0361 | 0.0352 | 0.0252 | 0.0468 | 0.038 | 0.00544
315.65 K | 0.0386 | 0.0378 | 0.0269 | 0.0489 | 0.04 | 0.00572
318.15 K | 0.0411 | 0.0408 | 0.0289 | 0.0513 | 0.0421 | 0.00608
